The values that follow come from patent US20060276465A1, “1,2-di(cyclic) substituted benzene compounds” (Eisai R&D Management Co., Ltd., priority 2003, published 2006).

For assay [1], the system named is human peripheral blood neutrophils. Put plainly: Human peripheral blood neutrophil adhesion system (adhesion to HUVEC immobilized plate, PMA-stimulated). The conditions noted are these: concentration inhibiting by 50% the PMA-stimulated increase in neutrophils adhered to HUVEC. The assay is classed as cell-based. An excerpt:
As examples of the “C2-7 alkylcarbonyl” of Group W1 there may be mentioned the same ones listed above, among which C2-5 groups are preferred, and acetyl is particularly preferred.
As examples of the “C1-6 alkyl” for R^6X and R^7X there may be mentioned the same ones listed above.
As examples of the “halogen” of Group C1 there may be mentioned the same ones listed above, among which bromine, fluorine or chlorine is preferred.
As examples of the “C1-6 alkyl” of Group C1 there may be mentioned the same ones listed above, among which C1-4 groups are preferred, and methyl is particularly preferred.
As examples of the “C1-6 alkoxy” of Group C1 there may be mentioned the same ones listed above, among which C1-4 groups are preferred, and methoxy or ethoxy is particularly preferred.
As examples of the “halogen” of Group D1 and Group D2 (mentioned below) there may be mentioned the same ones listed above, among which fluorine or chlorine is preferred.
As examples of the “C1-6 alkoxy” of Group D1 and Group D2 (mentioned below) there may be mentioned the same ones listed above, among which C1-4 groups are preferred, and methoxy or ethoxy is particularly preferred.
The “C1-6 alkylthio” of Group D1 is a thio group having the aforementioned “C1-6 alkyl” bonded thereto, and as examples there may be mentioned straight-chain or branched-chain groups such as methylthio, ethylthio, propylthio, isopropylthio, […], isobutylthio, s-butylthio, t-butylthio, pentylthio, isopentylthio, 2-methylbutylthio, neopentylthio, 1-ethylpropylthio, hexylthio, isohexylthio, 4-methylpentylthio, 3-methylpentylthio, 2-methylpentylthio, 1-methylpentylthio, 3,3-dimethylbutylthio, 2,2-dimethylbutylthio, 1,1-dimethylbutylthio, 1,2-dimethylbutylthio, 1,3-dimethylbutylthio, 2,3-dimethylbutylthio, 1-ethylbutylthio or 2-ethylbutylthio, among which C1-4 groups are preferred, and methylthio or ethylthio is particularly preferred.
As examples of the “C1-6 alkylsulfonyl” of Group D1 there may be mentioned the same ones listed above, among which C1-4 groups are preferred, and methylsulfonyl or ethylsulfonyl is particularly preferred.
The “C1-6 alkylsulfinyl” of Group D1 is a sulfinyl group having the aforementioned “C1-6 alkyl” bonded thereto, as examples there may be mentioned straight-chain or branched-chain groups such as methylsulfinyl, ethylsulfinyl, propylsulfinyl, isopropylsulfinyl, […], isobutylsulfinyl, s-butylsulfinyl, t-butylsulfinyl, pentylsulfinyl, isopentylsulfinyl, 2-methylbutylsulfinyl, neopentylsulfinyl, 1-ethylpropylsulfinyl, hexylsulfinyl, isohexylsulfinyl, 4-methylpentylsulfinyl, 3-methylpentylsulfinyl, 2-methylpentylsulfinyl, 1-methylpentylsulfinyl, 3,3-dimethylbutylsulfinyl, 2,2-dimethylbutylsulfinyl, 1,1-dimethylbutylsulfinyl, 1,2-dimethylbutylsulfinyl, 1,3-dimethylbutylsulfinyl, 2,3-dimethylbutylsulfinyl, 1-ethylbutylsulfinyl or 2-ethylbutylsulfinyl, among which C1-4 groups are preferred, and methylsulfinyl or ethylsulfinyl is particularly preferred.

Assay [2] has as its system Jurkat cells. Put plainly: Jurkat cell adhesion system (adhesion to immobilized human fibronectin, PMA-stimulated). The class given is cell-based. The conditions noted are these: concentration inhibiting by 50% the PMA-stimulated increase in adhered Jurkat cells on human fibronectin. An excerpt:
The “C1-6 haloalkyl” of Group A1 and Group A2 (mentioned below) is aforementioned “C1-6 alkyl” having 1-6 aforementioned “halogen” bonded thereto, as examples there may be mentioned straight-chain or branched-chain alkyl groups such as methyl, ethyl, n-propyl, isopropyl, n-butyl, isobutyl, s-butyl, t-butyl, pentyl, isopentyl, 2-methylbutyl, neopentyl, 1-ethylpropyl, hexyl, isohexyl, 4-methylpentyl, 3-methylpentyl, 2-methylpentyl, 1-methylpentyl, 3,3-dimethylbutyl, 2,2-dimethylbutyl, 1,1-dimethylbutyl, 1,2-dimethylbutyl, 1,3-dimethylbutyl, 2,3-dimethylbutyl, 1-ethylbutyl or 2-ethylbutyl, having fluorine or chlorine bonded thereto, among which C1-4 alkyl having 1 to 3 fluorine or chlorine bonded thereto is preferred, and trifluoromethyl is particularly preferred.
As examples of the “C2-7 alkylene”, where C2-7 alkylene is permissible only in the case that a spiro union is formed together with the substituted 5- to 10-membered cycloalkyl or the substituted 5- to 10-membered cycloalkenyl, of Group A1 and Group A2 (mentioned below), there may be mentioned straight-chain or branched-chain groups such as 1,2-ethylene, trimethylene, propylene, ethylethylene, tetramethylene, pentamethylene, hexamethylene or heptamethylene, among which 1,2-ethylene, trimethylene, tetramethylene or pentamethylene is preferred, and 1,2-ethylene, tetramethylene or pentamethylene is particularly preferred.
As examples of the “halogen” of Group W1 there may be mentioned the same ones listed above, among which fluorine or chlorine is preferred.
As examples of the “C1-6 alkyl” of Group W1 there may be mentioned the same ones listed above, among which C1-4 groups are preferred, and methyl or ethyl is particularly preferred.
The “C2-7 alkoxyalkyl” of Group W1 is aforementioned “C1-6 alkyl” having the aforementioned “C1-6 alkoxy” bonded thereto, of 2 to 7 carbon (total number of carbon), and as examples there may be mentioned methoxymethyl, methoxyethyl, ethoxyethyl, methoxypropyl or propoxyethyl, among which methoxymethyl is preferred.
As examples of the “C1-6 alkoxy” of the “C1-6 alkoxy optionally substituted with a substituent selected from Group T1” of Group W1 there may be mentioned the same ones listed above, among which C1-4 groups are preferred, and methoxy, ethoxy, isopropoxy or propoxy is particularly preferred.

Assay [3] has as its system Balb/c mice. Put plainly: DSS-induced colitis model. The class given is in vivo. The conditions noted are these: male Balb/c mice; 1-3% DSS for 5-7 days; 30 mg/kg orally once a day for 5-7 successive days. An excerpt: Evaluation of Compounds in DSS-Induced Colitis Model
A 1-3% solution of dextran sulfate sodium (hereinafter abbreviated as DSS; ICN) in purified water (Otsuka Pharmaceutical) was fed freely to 6- to 7-week-old male Balb/c mice (Charles River Japan) for 5-7 days to induce colitis. Disease Activity Index (hereinafter abbreviated as DAI) scored based on fecal hardness, blood content in feces and body weight change, the number of neutrophils infiltrating the colon and the length of the colon were used as indexes to evaluate compounds. Each compound was suspended or dissolved in an aqueous solution containing 0.5% methyl cellulose (Wako), and orally administered at 30 mg/kg once a day, for 5-7 successive days.

In assay [4] the test system is Jurkat cells. Kind of assay: Jurkat cell adhesion system (adhesion to immobilized human fibronectin, PMA-stimulated). The assay is classed as cell-based. The following applies: concentration inhibiting by 50% the PMA-stimulated increase in the number of adhered Jurkat cells on human fibronectin; 45-60 minutes, 37° C. How it is done:
Evaluation of Compounds in Jurkat Cell Adhesion System
<Immobilization of Human Fibronectin in 96-Well Plate>
Human fibronectin (Becton Dickinson Biosciences) was diluted with phosphate-buffered saline (hereinafter abbreviated as PBS; Sigma) to 0.1-0.01 μg/ml, and the diluted solution was added to a 96-well plate (Becton Dickinson) at 50 μl/well, and allowed to stand overnight at 4° C. On the following day, the supernatant was removed from the plate, and then PBS containing 1% bovine serum albumin (hereinafter abbreviated as BSA; Sigma) was added thereto at 100 μl/well and incubation was performed at 37° C. for 2 hours in a CO2 incubator (Hirasawa).
The supernatant was removed from each plate and Jurkat cells suspended in RPMI-1640 (Sigma) containing 1 mg/ml BSA were added at 80 μl/well for 2.5×10^5 cells/well. The compound diluted to different concentrations with RPMI-1640 containing 1 mg/ml BSA was immediately added at 10 μl/well, and then 100 nM phorbol myristate acetate (hereinafter abbreviated as PMA; Sigma) in RPMI-1640 containing 1 mg/ml BSA was added at 10 μl/well and the plate was incubated in a CO2 incubator at 37° C. for 45-60 minutes. The supernatant was removed from the plate and each well was washed several times with 100 μl/well of RPMI-1640, after which 50 mM citrate buffer (pH 5.0) containing 3.75 mM p-nitrophenol-N-acetyl-β-D-glucosaminide (Sigma) and 0.25% Triton X-100 (Sigma) were added at 60 μl/well, and the mixture was placed in a CO2 incubator and incubated at 37° C. for 45 minutes. After incubation, 50 mM glycine buffer (pH 10.4) containing 5 mM EDTA was added at 90 μl/well, and the absorbance at 405 nm was measured with an EL340 Automated Microplate Reader (BIO-TEK) to determine the adhered cell count. The concentration of each compound which inhibited the increase in the number of adhered cells by the PMA-stimulation by 50% was recorded as the IC50 (μM).

The test system of assay [5] is human peripheral blood neutrophils. Kind of assay: Human peripheral blood neutrophil adhesion system (adhesion to immobilized HUVEC, PMA-stimulated). The assay is classed as cell-based. The following applies: 0.75 h, concentration inhibiting by 50% the PMA-stimulated increase in the number of adhered BCECF-AM labeled neutrophils on HUVEC immobilized plate, 45 minutes, 37° C. How it is done:
Evaluation of Compounds in Human Peripheral Blood Neutrophil Adhesion System
<Preparation of Human Peripheral Blood Neutrophils>
To a plastic centrifugation tube containing 100 units of heparin sodium (Shimizu Pharmaceutical) was added 25 ml of fresh blood sampled from a healthy human. After adding and mixing therewith 8 ml of physiological saline (Otsuka Pharmaceutical) containing 6% Dextran (Nacalai), the mixture was allowed to stand at room temperature for 45 minutes for sedimentation of the erythrocytes. The resultant supernatant was transferred to another plastic centrifugation tube and combined with an equivalent volume of phosphate-buffered saline (hereinafter abbreviated as PBS; Sigma), and then centrifuged at 1600 rpm for 7 minutes at room temperature. The obtained hematocyte fraction was suspended in 4 ml of PBS, and the suspension was superposed on 4 ml of Ficoll-Paque™ PLUS (Amersham Biosciences). The resultant bilayer liquid was centrifuged at 2000 rpm for 30 minutes at room temperature, after which the supernatant was removed and the precipitate was suspended in 10 ml of PBS and centrifuged at 1200 rpm for 7 minutes, and the supernatant was removed. The resulting precipitate was suspended in 0.5 ml of PBS again, and then 10 ml of distilled water (Otsuka Pharmaceutical) was added, 0.5 ml of an aqueous solution containing 3 M NaCl was immediately added to restore isotonicity, the mixture was centrifuged at 1200 rpm for 7 minutes, and the obtained precipitate was suspended in PBS containing 1 mg/ml bovine serum albumin (hereinafter abbreviated as BSA; Sigma) again and stored in ice until being used for the experiment.
<Fluorescent Labeling of Human Peripheral Blood Neutrophils>
The obtained neutrophils were suspended in PBS containing 1 mg/ml BSA at 2×10^7 cells/ml. BCECF-AM (Dojin) was added to a final concentration of 5 μM, and the mixture was incubated at 37° C. for 45 minutes. It was then rinsed twice with PBS containing 1 mg/ml BSA by centrifugation, suspended again in PBS containing 1 mg/ml BSA at 5×10^7 cells/ml, and stored in ice until use.
<Preparation of HUVEC Immobilized Plate>
Human umbilical vein endothelial cells (hereinafter abbreviated as HUVEC) were suspended in MCDB131 medium (Chlorella Industries) containing 10% fetal calf serum and 30 μg/ml endothelial cell growth supplement (Becton Dickinson Bioscience). The suspension was added at 7.5×10^3 cells/well to a 96-well plate (Iwaki) immobilized with type I collagen, and cultured for 3 days in a CO2 incubator (Hirasawa). Upon confirming confluency of the cells, the supernatant was discarded, the plate was rinsed twice with PBS, and then PBS containing 0.1% glutaraldehyde (Kanto Kagaku) was added at 100 μl/well and the HUVECs were immobilized for 5 minutes. The supernatant was discarded and the plate was washed twice with PBS, and then PBS was added at 100 μl/well and the mixture was stored at 4° C. until use.
To 6.5 ml of RPMI-1640 medium (Sigma) containing 1 mg/ml of BSA were added 0.5 ml of a suspension of BCECF-AM labeled neutrophils at 5×10^7/ml stored in ice, which was mixed, and the mixture was added at 80 μl/well to a HUVEC immobilized plate. To this plate were immediately added 10 μl/well of a solution of the compound diluted at different concentrations with RPMI-1640 containing 1 mg/ml BSA, and 10 μl/well of 100 nM phorbol myristate acetate (hereinafter abbreviated as PMA; Sigma) in RPMI-1640 containing 1 mg/ml BSA, and the mixture was incubated in a CO2 incubator at 37° C. for 45 minutes. The supernatant was removed from the plate, which was then washed several times with RPMI-1640 at 100 μl/well, and then PBS containing 0.1% NP-40 (Calbiochem) was added thereto at 100 μl/well and the fluorescent intensity was measured with and ARVO™SX 1420 multi label counter (Wallac) to determine the number of adhered cells. […]

Where a name gives a salt, the structure may show the parent alone.

As usually defined, the IC50 is the concentration that gives 50% inhibition. A higher IC50 goes with lower potency. Regarding `CCCN1CCN(c2cc3c(cc2C2=CCC(C(C)(C)C)CC2)N(C)CCO3)CC1` (racemic) [Example 8, 6-(4-t-Butylcyclohex-1-enyl)-4-methyl-7-(4-propylpiperazin-1-yl)-3,4-dihydro-2H-benzo[1,4]oxazine hydrochloride], the IC50 in assay [1] worked out at 16.7 µM; in assay [2], 3.4 µM.

`CCCCN1CCN(c2cc(OCCOC)ccc2C2CC(C)(C)CC(C)(C)C2)CC1` [Example 10, 1-Butyl-4-[5-(2-methoxyethoxy)-2-(3,3,5,5-tetramethylcyclohexyl)phenyl]piperazine hydrochloride]: the values for the half-inhibitory concentration (IC50) in assay [1] and in assay [2] were 7.8 µM and 3.3 µM, respectively.

On to `CCCN1CCN(c2ccc(OCCOC)cc2C2CC(C)(C)CC(C)(C)C2)CC1` [Example 12, 1-[4-(2-Methoxyethoxy)-2-(3,3,5,5-tetramethylcyclohexyl)phenyl]-4-propylpiperazine hydrochloride], for which the IC50 worked out at 12.5 µM in assay [1] and 14.7 µM in assay [2].

In the case of `CCCCN1CCN(c2cc3c(cc2C2=CC(C)(C)CC(C)(C)C2)OCO3)CC1` [Example 13, 1-Butyl-4-[6-(3,3,5,5-tetramethylcyclohex-1-enyl)benzo [1,3]dioxol-5-yl]piperazine hydrochloride], the half-inhibitory concentration (IC50) in assay [1] is 21.7 µM; in assay [2], 3.8 µM.

`CCCN1CCN(c2ccccc2C2CC(C)(C)CC(C)(C)C2)CC1.Cl` [Example 31, 1-Propyl-4-[2-(3,3,5,5-tetramethylcyclohexyl)phenyl]piperazine hydrochloride]: the “improvement in comparison with the DSS control group (DAI, number of neutrophils infiltrating the colon, length of the colon)” value in assay [3] was “particularly good improvement”. For the same compound, the IC50 was 4.5 µM in assay [4] and 9.5 µM in assay [5].

`CCCCN1CCN(c2ccc(N3CCC(OC)CC3)cc2C2CC(C)(C)CC(C)(C)C2)CC1.Cl` [Example 32, 1-Butyl-4-[4-(4-methoxypiperidin-1-yl)-2-(3,3,5,5-tetramethylcyclohexyl)phenyl]piperazine hydrochloride]: in assay [3], the “improvement in comparison with the DSS control group (DAI, number of neutrophils infiltrating the colon, length of the colon)” value was “particularly good improvement”. In addition, the IC50 in assay [4] was determined as 3.6 µM; in assay [5] it was 7 µM.
